Values quoted from earlier work as cited in publication PMC4876630 (Theranostics, 2016).

Conditions: ref [4]-[8]

For `CC[C@@]1(O)C(=O)OCc2c1cc1n(c2=O)Cc2cc3ccccc3nc2-1` [CPT, camptothecin], the Aqueous solubility is listed as 2 to 3 µg/mL.
